Measured values as given in the NIST ThermoML archive (doi:10.1021/je700193w).

Key:
[1] = xn = mol fraction of the nth substance listed; conditions: 101 kPa, Liquid
[2] = excess molar enthalpy (molar enthalpy of mixing); xn = mol fraction of the nth substance listed; conditions: 101 kPa, Liquid

C=C1CCC2CC1C2(C)C (stereo not drawn) [β-pinene] + CC(C)CO
Conditions	excess molar enthalpy, [2] [kcal/mol]	mass density, [1] [kg/m3]	speed of sound, [1] [m/s]
283.15 K, x1 = 0.0529	0.0158	–	–
283.15 K, x1 = 0.0566	–	815.77	1248.3
283.15 K, x1 = 0.1066	–	820.99	1257.1
283.15 K, x1 = 0.109	0.0306	–	–
283.15 K, x1 = 0.2011	–	829.88	1270.2
283.15 K, x1 = 0.2159	0.0605	–	–
283.15 K, x1 = 0.2931	–	837.56	1281.1
283.15 K, x1 = 0.3175	0.0851	–	–
283.15 K, x1 = 0.395	–	845.26	1292.2
283.15 K, x1 = 0.4299	0.108	–	–
283.15 K, x1 = 0.4928	–	851.82	1302
283.15 K, x1 = 0.5331	0.124	–	–
283.15 K, x1 = 0.6112	–	859.03	1313.9
283.15 K, x1 = 0.6229	0.13	–	–
283.15 K, x1 = 0.6906	–	863.45	1321.1
283.15 K, x1 = 0.7198	0.127	–	–
283.15 K, x1 = 0.7939	–	868.88	1330.7
283.15 K, x1 = 0.8249	0.111	–	–
283.15 K, x1 = 0.8682	–	872.61	1337.7
283.15 K, x1 = 0.9096	0.0841	–	–
283.15 K, x1 = 0.9393	–	876.05	1346.2
283.15 K, x1 = 0.9686	0.0672	–	–
298.15 K, x1 = 0.0481	–	803.39	1195.7
298.15 K, x1 = 0.0529	0.0217	–	–
298.15 K, x1 = 0.109	0.044	–	–
298.15 K, x1 = 0.1107	–	809.85	1203.9
298.15 K, x1 = 0.201	–	818.16	1214.9
298.15 K, x1 = 0.2159	0.0841	–	–
298.15 K, x1 = 0.2969	–	826.03	1225.1
298.15 K, x1 = 0.3175	0.115	–	–
298.15 K, x1 = 0.4002	–	833.57	1235.2
298.15 K, x1 = 0.4299	0.141	–	–
298.15 K, x1 = 0.4896	–	839.51	1243.9
298.15 K, x1 = 0.5331	0.156	–	–
298.15 K, x1 = 0.5856	–	845.33	1252.2
298.15 K, x1 = 0.6229	0.161	–	–
298.15 K, x1 = 0.6785	–	850.56	1260.4
298.15 K, x1 = 0.7198	0.152	–	–
298.15 K, x1 = 0.7841	–	856.21	1270.1
298.15 K, x1 = 0.8249	0.131	–	–
298.15 K, x1 = 0.8875	–	861.41	1280.4
298.15 K, x1 = 0.9096	0.101	–	–
298.15 K, x1 = 0.933	–	863.62	1285.2
298.15 K, x1 = 0.9686	0.086	–	–
303.15 K, x1 = 0.0505	–	799.78	1181.7
303.15 K, x1 = 0.0529	0.0275	–	–
303.15 K, x1 = 0.1044	–	805.23	1188.4
303.15 K, x1 = 0.109	0.0566	–	–
303.15 K, x1 = 0.2023	–	814.23	1200.2
303.15 K, x1 = 0.2159	0.116	–	–
303.15 K, x1 = 0.2999	–	822.12	1210.6
303.15 K, x1 = 0.3175	0.154	–	–
303.15 K, x1 = 0.3929	–	828.94	1219.2
303.15 K, x1 = 0.4299	0.185	–	–
303.15 K, x1 = 0.4877	–	835.22	1227.7
303.15 K, x1 = 0.5331	0.2	–	–
303.15 K, x1 = 0.6108	–	842.66	1238.3
303.15 K, x1 = 0.6229	0.204	–	–
303.15 K, x1 = 0.6829	–	846.72	1244.6
303.15 K, x1 = 0.7198	0.191	–	–
303.15 K, x1 = 0.7908	–	852.45	1254.4
303.15 K, x1 = 0.8249	0.162	–	–
303.15 K, x1 = 0.8846	–	857.17	1263.9
303.15 K, x1 = 0.9096	0.124	–	–
303.15 K, x1 = 0.9299	–	859.39	1268.9
303.15 K, x1 = 0.9686	0.103	–	–
313.15 K, x1 = 0.0401	–	790.45	1143.3
313.15 K, x1 = 0.0529	0.0356	–	–
313.15 K, x1 = 0.1042	–	796.91	1150.9
313.15 K, x1 = 0.109	0.0743	–	–
313.15 K, x1 = 0.2004	–	805.6	1160.9
313.15 K, x1 = 0.2159	0.141	–	–
313.15 K, x1 = 0.3012	–	813.68	1170.6
313.15 K, x1 = 0.3175	0.187	–	–
313.15 K, x1 = 0.3902	–	820.11	1178.2
313.15 K, x1 = 0.4299	0.221	–	–
313.15 K, x1 = 0.51	–	827.98	1187.7
313.15 K, x1 = 0.5331	0.239	–	–
313.15 K, x1 = 0.6202	–	834.55	1196.8
313.15 K, x1 = 0.6229	0.242	–	–
313.15 K, x1 = 0.6847	–	838.19	1202.2
313.15 K, x1 = 0.7198	0.225	–	–
313.15 K, x1 = 0.7768	–	843.06	1210.2
313.15 K, x1 = 0.8249	0.192	–	–
313.15 K, x1 = 0.8969	–	849.21	1222.1
313.15 K, x1 = 0.9096	0.147	–	–
313.15 K, x1 = 0.9601	–	852.46	1230.5
313.15 K, x1 = 0.9686	0.123	–	–
323.15 K, x1 = 0.0529	0.044	–	–
323.15 K, x1 = 0.0547	–	783.66	1114.2
323.15 K, x1 = 0.1021	–	788.33	1119.3
323.15 K, x1 = 0.109	0.0839	–	–
323.15 K, x1 = 0.207	–	797.66	1129.4
323.15 K, x1 = 0.2159	0.163	–	–
323.15 K, x1 = 0.2989	–	804.85	1136.8
323.15 K, x1 = 0.3175	0.215	–	–
323.15 K, x1 = 0.4024	–	812.32	1144.6
323.15 K, x1 = 0.4299	0.248	–	–
323.15 K, x1 = 0.5041	–	818.98	1152.7
323.15 K, x1 = 0.5331	0.273	–	–
323.15 K, x1 = 0.6074	–	825.2	1160.6
323.15 K, x1 = 0.6229	0.274	–	–
323.15 K, x1 = 0.6965	–	830.27	1167.7
323.15 K, x1 = 0.7198	0.255	–	–
323.15 K, x1 = 0.8063	–	836.02	1177.1
323.15 K, x1 = 0.8249	0.22	–	–
323.15 K, x1 = 0.8887	–	840.5	1184.7
323.15 K, x1 = 0.9096	0.169	–	–
323.15 K, x1 = 0.9618	–	844.41	1192.6
323.15 K, x1 = 0.9686	0.141	–	–
